Several values for one entry are separate records, joined by “and”; a condition that tells them apart may be missing. Identical values can stand only once. Toxic doses and inconclusive results are not listed.

In the test the test system is BDF1 mice, P388 leukemia ip, median survival T/C. Description: NCI In Vivo Anticancer Drug Screen. Data for tumor model P388 Leukemia (intraperitoneal) in B6D2F1 (BDF1) mice. As to conditions: endpoint: median survival time, higher = longer survival. In outline:
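Antitumour effect was judged in vivo: survival in drug-treated mice, normalised to that of vehicle-dosed controls, gives the reported T/C.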

Setting [1] is: dose: 12.5 mg/kg/injection, schedule: Q01DX009 (ip), vehicle: water.
Where [2] appears, read: dose: 25.0 mg/kg/injection, schedule: Q01DX009 (ip), vehicle: water.
The mark [3] stands for this setting: dose: 50.0 mg/kg/injection, schedule: Q01DX009 (ip), vehicle: water.
The mark [4] stands for this setting: dose: 50.0 mg/kg/injection, schedule: Q04DX003 (ip), vehicle: saline with Tween-80.
[5] abbreviates: dose: 100.0 mg/kg/injection, schedule: Q01DX009 (ip), vehicle: saline with Tween-80.
Setting [6] is: dose: 200.0 mg/kg/injection, schedule: Q01DX009 (ip), vehicle: saline with Tween-80.
[7] abbreviates: dose: 200.0 mg/kg/injection, schedule: Q04DX003 (ip), vehicle: saline with Tween-80.
The mark [8] stands for this setting: dose: 100.0 mg/kg/injection, schedule: Q04DX003 (ip), vehicle: saline with Tween-80.
Where [9] appears, read: dose: 400.0 mg/kg/injection, schedule: Q04DX003 (ip), vehicle: saline with Tween-80.
Where [10] appears, read: dose: 100.0 mg/kg/injection, schedule: Q04DX003 (ip), vehicle: saline.
Where [11] appears, read: dose: 200.0 mg/kg/injection, schedule: Q04DX003 (ip), vehicle: saline.

Regarding `C[N+]1(Cc2c[nH]c3ccsc23)CCCCC1`, the T/C by setting is: (dose: 3.0 mg/kg/injection, schedule: Q01DX009 (ip), vehicle: saline with Tween-80) 87 % of control; (dose: 3.0 mg/kg/injection, schedule: Q04DX003 (ip), vehicle: saline with Tween-80) 104 % of control; (dose: 6.0 mg/kg/injection, schedule: Q01DX009 (ip), vehicle: saline with Tween-80) 91 % of control; (dose: 6.0 mg/kg/injection, schedule: Q04DX003 (ip), vehicle: saline with Tween-80) 104 % of control; (dose: 12.0 mg/kg/injection, schedule: Q01DX009 (ip), vehicle: saline with Tween-80) 100 % of control; (dose: 12.0 mg/kg/injection, schedule: Q04DX003 (ip), vehicle: saline with Tween-80) 100 % of control.
`C[n+]1cc2ccccc2c2ccccc21`: the T/C is 95 % of control and 109 % of control under setting [1]; 105 % of control (dose: 12.5 mg/kg/injection, schedule: Q04DX003 (ip), vehicle: water); 108 % of control (dose: 15.0 mg/kg/injection, schedule: Q01DX009 (ip), vehicle: water); 101 % of control and 115 % of control under setting [2]; 114 % of control (dose: 25.0 mg/kg/injection, schedule: Q04DX003 (ip), vehicle: water).
Turning to `CCN(CC)CCCC(C)NC/C=C/CNC(C)CCCN(CC)CC` (configuration not stated), the T/C runs as follows: (dose: 0.78 mg/kg/injection, schedule: Q01DX009 (ip), vehicle: water) 99 % of control; (dose: 1.56 mg/kg/injection, schedule: Q01DX009 (ip), vehicle: water) 91 % of control; (dose: 3.12 mg/kg/injection, schedule: Q01DX009 (ip), vehicle: water) 91 % of control; under setting [1], 86 % of control; under setting [2], 91 % of control; under setting [3], 99 % of control.
As for `O=[N+]([O-])c1ccc(/C=C/C=C/c2ccc(Cl)cc2Cl)cc1`, the T/C was 104 % of control (dose: 50.0 mg/kg/injection, schedule: Q01DX009 (ip), vehicle: Klucel (hydroxypropylcellulose) (HPC)); 113 % of control (dose: 100.0 mg/kg/injection, schedule: Q01DX009 (ip), vehicle: Klucel (hydroxypropylcellulose) (HPC)); 104 % of control (dose: 100.0 mg/kg/injection, schedule: Q04DX003 (ip), vehicle: Klucel (hydroxypropylcellulose) (HPC)); 90 % of control (dose: 200.0 mg/kg/injection, schedule: Q01DX009 (ip), vehicle: Klucel (hydroxypropylcellulose) (HPC)); 95 % of control (dose: 200.0 mg/kg/injection, schedule: Q04DX003 (ip), vehicle: Klucel (hydroxypropylcellulose) (HPC)); 91 % of control (dose: 400.0 mg/kg/injection, schedule: Q04DX003 (ip), vehicle: Klucel (hydroxypropylcellulose) (HPC)).
Consider `[O]=[Cr](=[O])([OH])[O][Cr](=[O])(=[O])[OH]`, for which the T/C (dose: 6.25 mg/kg/injection, schedule: Q01DX009 (ip), vehicle: saline) was 113 % of control and the T/C (dose: 12.5 mg/kg/injection, schedule: Q01DX009 (ip), vehicle: saline) was 100 % of control.
For `CCC1(C)CCC2=C(CCC3C(C)(C(=O)O)CCCC23C)C1` (configuration not stated), the T/C was 100 % of control (dose: 50.0 mg/kg/injection, schedule: Q01DX009 (ip), vehicle: saline with Tween-80); 96 % of control under setting [4]; 87 % of control under setting [5]; 100 % of control under setting [6]; 96 % of control under setting [7].
`Clc1cc(C(Cl)(Cl)Cl)ccc1C(Cl)(Cl)Cl`: the T/C reads like this: (dose: 100.0 mg/kg/injection, schedule: Q01DX001 (ip), vehicle: saline with Tween-80) 100 % of control; (dose: 200.0 mg/kg/injection, schedule: Q01DX001 (ip), vehicle: saline with Tween-80) 104 % of control; (dose: 400.0 mg/kg/injection, schedule: Q01DX001 (ip), vehicle: saline with Tween-80) 95 % of control.
For the compound `c1cnc2c3c(ccc2c1)CN(C12CC4CC(CC(C4)C1)C2)CO3`, the T/C is, setting by setting: (dose: 25.0 mg/kg/injection, schedule: Q04DX003 (ip), vehicle: saline with Tween-80) 108 % of control; under setting [4], 109 % of control and 113 % of control; under setting [8], 108 % of control.
As to `Cc1c2oc3c(C)ccc(C(=O)NC(C)Cc4ccccc4)c3nc-2c(C(=O)NC(C)Cc2ccccc2)c(N)c1=O` (configuration not stated), the T/C is 87 % of control (dose: 100.0 mg/kg/injection, schedule: Q04DX002 (ip), vehicle: DMSO) and 92 % of control (dose: 200.0 mg/kg/injection, schedule: Q04DX002 (ip), vehicle: DMSO).
As to `CC([NH-])C(=O)O.CC([NH-])C(=O)O.CC([NH-])C(=O)O.[Co+3]` (configuration not stated), the T/C is, setting by setting: under setting [2], 103 % of control; under setting [3], 92 % of control; (dose: 100.0 mg/kg/injection, schedule: Q01DX009 (ip), vehicle: water) 92 % of control; (dose: 100.0 mg/kg/injection, schedule: Q04DX003 (ip), vehicle: water) 116 % of control; (dose: 200.0 mg/kg/injection, schedule: Q04DX003 (ip), vehicle: water) 90 % of control.
With `COC(OC)c1nc(N)[nH]c(=O)c1Cc1ccc(C)c2ccccc12`, the T/C runs as follows: under setting [5], 96 % of control; under setting [8], 109 % of control; under setting [6], 88 % of control; under setting [7], 100 % of control; under setting [9], 100 % of control.
Consider `O=C1OC(C(O)CO)C(O)=C1O` (configuration not stated), for which the T/C (dose: 0.01 mg/kg/injection, schedule: Q01DX009 (ip), vehicle: saline) is 105 % of control and 109 % of control; the T/C (dose: 0.03 mg/kg/injection, schedule: Q01DX009 (ip), vehicle: saline) was 91 % of control and 100 % of control and 118 % of control; the T/C (dose: 0.06 mg/kg/injection, schedule: Q01DX009 (ip), vehicle: saline) is 97 % of control and 100 % of control and 113 % of control; the T/C (dose: 0.24 mg/kg/injection, schedule: Q01DX009 (ip), vehicle: saline) is 102 % of control; the T/C (dose: 0.25 mg/kg/injection, schedule: Q01DX009 (ip), vehicle: saline) is 90 % of control and 110 % of control; the T/C (dose: 0.5 mg/kg/injection, schedule: Q01DX009 (ip), vehicle: saline) is 95 % of control and 105 % of control. Moreover, the T/C by setting is: (dose: 1.0 mg/kg/injection, schedule: Q01DX001 (ip), vehicle: saline) 100 % of control; (dose: 1.0 mg/kg/injection, schedule: Q01DX009 (ip), vehicle: saline) 90 % of control and 95 % of control; (dose: 2.0 mg/kg/injection, schedule: Q01DX001 (ip), vehicle: saline) 100 % of control; (dose: 2.0 mg/kg/injection, schedule: Q01DX009 (ip), vehicle: saline) 95 % of control; (dose: 4.0 mg/kg/injection, schedule: Q01DX001 (ip), vehicle: saline) 105 % of control; (dose: 4.0 mg/kg/injection, schedule: Q01DX009 (ip), vehicle: saline) 90 % of control. The T/C is, setting by setting: (dose: 8.0 mg/kg/injection, schedule: Q01DX009 (ip), vehicle: saline) 100 % of control; (dose: 16.0 mg/kg/injection, schedule: Q01DX001 (ip), vehicle: saline) 105 % of control; (dose: 16.0 mg/kg/injection, schedule: Q01DX009 (ip), vehicle: saline) 100 % of control; (dose: 32.0 mg/kg/injection, schedule: Q01DX001 (ip), vehicle: saline) 100 % of control; (dose: 32.0 mg/kg/injection, schedule: Q01DX009 (ip), vehicle: saline) 90 % of control; (dose: 64.0 mg/kg/injection, schedule: Q01DX001 (ip), vehicle: saline) 95 % of control. Besides, the T/C by setting is: (dose: 100.0 mg/kg/injection, schedule: Q01DX009 (ip), vehicle: saline) 100 % of control; under setting [10], 95 % of control; (dose: 200.0 mg/kg/injection, schedule: Q01DX009 (ip), vehicle: saline) 105 % of control; under setting [11], 95 % of control; (dose: 400.0 mg/kg/injection, schedule: Q04DX003 (ip), vehicle: saline) 95 % of control.
With `C(=NC12CC3CC(CC(C3)C1)C2)c1ccccc1`, the T/C is, setting by setting: (dose: 25.0 mg/kg/injection, schedule: Q04DX003 (ip), vehicle: saline) 105 % of control; (dose: 50.0 mg/kg/injection, schedule: Q04DX003 (ip), vehicle: saline) 99 % of control; under setting [10], 107 % of control; under setting [11], 105 % of control.
With `Cc1ncc([N+](=O)[O-])n1CCn1nnc2c1CCCC2`, the T/C is, setting by setting: under setting [7], 210 % of control; under setting [9], 114 % of control.

For the origin of these results see PubChem BioAssay AID328 (DTP/NCI, 2004).
